# Results as given in patent US6686352B2, “Substituted imidazo [1,5-a] pyrimido [5,4-d] [1] benzazepine derivatives” (Hoffmann-La Roche Inc., priority 2001, dated 2004).
# How the values were obtained:
# [1] = biological target: T1, GABA A receptor α5β3γ2 (α5 subunit) (Rattus norvegicus, UniProt P18508+P19969); experiment: [3H]flumazenil ([3H]Ro 15-1788) competition binding assay, membranes of SF9 cells expressing rat GABA A receptors; settings: displacement of [3H]Ro 15-1788 (0.5 nM for α5), 1 hour at 4° C., means of two determinations; especially preferred compounds
# T1 construct: expressed in transfected cells; host or cells: SF9 insect cells (membrane preparation)
# Protocol: The affinity of compounds at GABA A receptor subtypes was measured by competition for [^3H]flumazenil ([^3H]Ro 15-1788) (85 Ci/mmol; Amersham) binding to SF9 cells expressing rat receptors of composition α1β3γ2, α2β3γ2, α3β3γ2 and α5β3γ2.
# Cell pellets were suspended in Krebs-tris buffer (4.8 mM KCl, 1.2 mM CaCl2, 1.2 mM MgCl2, 120 mM NaCl, 15 mM Tris; pH 7.5; binding assay buffer), homogenized by polytron for ca. 15 sec on ice and centrifuged in UZ for 30 min at 4° C. (100000 g; rotor: TFT 4594=[…]). The cell pellets were re-suspended in Krebs-tris buffer and homogenized by polytron for ca. 15 sec on ice. Aliquots of 1 ml were prepared, protein was measured (Bradford method) and the resulting membrane aliquots were stored at −70° C.
# Radioligand binding assays were carried out in a volume of 200 μL (96-well plates) which contained 100 μL of cells, [^3H]Ro 15-1788 at a concentration of 1 nM for (α1, α2, α3 subunits and 0.5 nM for α5 subunits and the test compound in the range of 10^−10−3×10^−6 M. Nonspecific binding was defined by 10^−5 M diazepam and typically represented less than 5% of the total binding. Assays were incubated to equilibrium for 1 hour at 4° C. and harvested onto GF/C uni-filters (Packard) by filtration using a Packard harvester and washing with ice-cold wash buffer (50 mM Tris; pH 7.5). After drying, filter-retained radioactivity was detected by liquid scintillation counting. Ki values were calculated using Excel-Fit (Microsoft) and are the means of two determinations.
Compound,Ki [1] [nM],melting point [°C]
"3-Fluoro-6-methyl-9H-imidazo[1,5-a]pyrimido[5,4-d][1]benzazepine-10-carboxylic Acid Ethyl Ester [Example 8]",4.6,
CCOC(=O)c1ncnc2c1Cc1cnc(C3CC3)n1-c1cc(Br)ccc1-2,,230
"9H-Imidazo[1,5-a]pyrimido[5,4-d][1]benzazepine-10-carboxylic Acid Ethyl Ester [Example 1]",3.7,
CCOC(=O)c1ncnc2c1Cc1cnc(Cc3c[nH]c4ccccc34)n1-c1cc(C)c(C)cc1-2,,135
CCOC(=O)c1ncnc2c1Cc1cnc(C)n1-c1cc(C)ccc1-2,,200
Cc1ncc2n1-c1ccccc1-c1ncnc(-c3nc(C4CC4)no3)c1C2,,216 to 218
CCOC(=O)c1ncnc2c1Cc1cnc(-c3ccccc3)n1-c1ccccc1-2,,244 to 246
"6-Cyclopropyl-3-fluoro-9H-imidazo[1,5-a]pyrimido[5,4-d][1]benzazepine-10-carboxylic Acid Ethyl Ester [Example 11]",7.8,
"6-[(4-Methoxyphenyl)Methyl]-9H-imidazo[1,5-a]pyrimido[5,4-d][1]benzazepine-10-carboxylic Acid Ethyl Ester [Example 6]",13.8,
Cc1ncc2n1-c1ccccc1-c1ncnc(C(=O)O)c1C2,,285 to 287
"3-Fluoro-6-propyl-9H-imidazo[1,5-a]pyrimido[5,4-d][1]benzazepine-10-carboxylic Acid Ethyl Ester [Example 9]",8,
CCCc1ncc2n1-c1cc(C)ccc1-c1ncnc(C(=O)OCC)c1C2,,250
CCOC(=O)c1ncnc2c1Cc1cnc(Cc3ccc(OC)cc3)n1-c1cc(Cl)ccc1-2,,192
"6-Propyl-9H-imidazo[1,5-a]pyrimido[5,4-d][1]benzazepine-10-carboxylic Acid Ethyl Ester [Example 2]",5.5,
CCOC(=O)c1ncnc2c1Cc1cnc(Cc3ccc(OC)cc3)n1-c1cc(Br)ccc1-2,,180
CCOC(=O)c1ncnc2c1Cc1cnc(Cc3ccc(OC)cc3)n1-c1cc(C)c(C)cc1-2,,150
CCOC(=O)c1ncnc2c1Cc1cnc(C)n1-c1cc(C)c(C)cc1-2,,210

Compound,Ki [1] [nM],melting point [°C]
CCOC(=O)c1ncnc2c1Cc1cnc(Cc3c[nH]c4ccccc34)n1-c1cc(Cl)ccc1-2,,120
"6-(1-Methylethyl)-9H-imidazo [1,5-a]pyrimido[5,4-d][1]benzazepine-10-carboxylic Acid Ethyl Ester [Example 3]",8.9,
CCOC(=O)c1ncnc2c1Cc1cnc(C(C)(C)C)n1-c1cc(F)ccc1-2,,233
"3-Bromo-6-methyl-9H-imidazo[1,5-a]pyrimido[5,4-d][1]benzazepine-10-carboxylic Acid Ethyl Ester [Example 22]",12.5,
"6-Methyl-9H-imidazo[1,5-a]pyrimido[5,4-d][1]benzazepine-10-carboxylic Acid Ethyl Ester [Example 29]",3.8,
"6-Cyclopropyl-9H-imidazo[1,5-a]pyrimido[5,4-d][1]benzazepine-10-carboxylic Acid Ethyl Ester [Example 4]",7.6,
CCOC(=O)c1ncnc2c1Cc1cnc(C(C)(C)C)n1-c1cc(Cl)ccc1-2,,180
CCCc1ncc2n1-c1cc(C)c(C)cc1-c1ncnc(C(=O)OCC)c1C2,,213
CCOC(=O)c1ncnc2c1Cc1cnc(Cc3c[nH]c4ccccc34)n1-c1cc(F)ccc1-2,,230
CCOC(=O)c1ncnc2c1Cc1cnc(C3CC3)n1-c1cc(Cl)ccc1-2,,230
CCOC(=O)c1ncnc2c1Cc1cnc(C3CC3)n1-c1cc(C)ccc1-2,,250
"3-Fluoro-6-(1-methylethyl)-9H-imidazo[1,5-a]pyrimido[5,4-d][1]benzazepine-10-carboxylic Acid Ethyl Ester [Example 10]",11.2,
CCOC(=O)c1ncnc2c1Cc1cncn1-c1cc(Br)ccc1-2,,210
CCOC(=O)c1ncnc2c1Cc1cnc(Cc3ccc(OC)cc3)n1-c1cc(F)ccc1-2,,185
CCOC(=O)c1ncnc2c1Cc1cnc(C(C)C)n1-c1cc(Cl)ccc1-2,,192
CCOC(=O)c1ncnc2c1Cc1cnc(Cc3c[nH]c4ccccc34)n1-c1ccccc1-2,,120
CCOC(=O)c1ncnc2c1Cc1cnc(C(C)(C)C)n1-c1ccccc1-2,,250
